#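 Here, GI50 denotes the concentration required for 50% inhibition of growth. TGI denotes the concentration required for complete inhibition of growth.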
# Assays:
# Test in all cases: NCI anticancer screen, dose series, 384-well format
# [1] = tested on: SK-OV-3 ovarian
# [2] = tested on: SK-MEL-28 melanoma
# [3] = tested on: TK-10 renal
# [4] = tested on: SW-620 colon
# [5] = tested on: COLO 205 colon
# [6] = tested on: BT-549 breast
# [7] = tested on: K-562 leukemia
# [8] = tested on: PC-3 prostate
# [9] = tested on: RPMI-8226 leukemia
# [10] = tested on: NCI-H226 lung
# [11] = tested on: DU-145 prostate
# [12] = tested on: A549 NSCLC
# [13] = tested on: OVCAR-5 ovarian
# [14] = tested on: HCC-2998 colon
# [15] = tested on: CAKI-1 renal
# [16] = tested on: NCI-H522 lung
# [17] = tested on: SR leukemia
# [18] = tested on: UACC-62 melanoma
# [19] = tested on: HS 578T breast
# [20] = tested on: UACC-257 melanoma
# [21] = tested on: HL-60(TB) leukemia
# [22] = tested on: NCI-H460 NSCLC
# [23] = tested on: SN12C renal
# [24] = tested on: OVCAR-3 ovarian
# [25] = tested on: MALME-3M melanoma
# [26] = tested on: UO-31 renal
# [27] = tested on: A498 renal
# [28] = tested on: OVCAR-4 ovarian
# [29] = tested on: HT29 colon
# [30] = tested on: SF-539 CNS
# [31] = tested on: HCT-15 colon
# [32] = tested on: IGROV1 ovarian
# [33] = tested on: NCI-H23 lung
# [34] = tested on: SF-268 CNS
# [35] = tested on: NCI-H322M lung
# [36] = tested on: HOP-62 NSCLC
# [37] = tested on: M14 melanoma
# [38] = tested on: MDA-MB-231 breast
# [39] = tested on: U251 glioblastoma
# [40] = tested on: OVCAR-8 ovarian
# [41] = tested on: SNB-19 CNS
# [42] = tested on: ACHN renal
# [43] = tested on: T-47D breast
# [44] = tested on: SK-MEL-5 melanoma
# [45] = tested on: EKVX NSCLC
# [46] = tested on: 786-0 renal
# [47] = tested on: KM12 colon
# [48] = tested on: SNB-75 CNS
# [49] = tested on: SF-295 CNS
# [50] = tested on: MDA-MB-468 breast
# [51] = tested on: RXF 393 renal
# [52] = tested on: LOX IMVI melanoma
# [53] = tested on: HOP-92 NSCLC
# [54] = tested on: MOLT-4 leukemia
# [55] = tested on: CCRF-CEM leukemia
# [56] = tested on: MCF7 breast
# [57] = tested on: NCI/ADR-RES ovarian
# [58] = tested on: MDA-MB-435 melanoma
smiles,measurement,setting,value
O=C(NCC(F)(F)F)Nc1cccc(-c2cnc3cc(-c4ccc(F)cc4)ccn23)c1,GI50,[1],631 nM
same,TGI,[1],7870 nM
same,GI50,[2],2320 nM
same,TGI,[2],17900 nM
same,GI50,[3],2210 nM
same,TGI,[3],13100 nM
same,GI50,[4],433 nM
same,TGI,[4],10500 nM
same,GI50,[5],451 nM
same,TGI,[5],3530 nM
same,GI50,[6],324 nM
same,TGI,[6],2130 nM
same,GI50,[7],362 nM
same,TGI,[7],1200 nM
same,GI50,[8],2300 nM
same,TGI,[8],10800 nM
same,GI50,[9],575 nM
same,TGI,[9],1830 nM
same,GI50,[10],1030 nM
same,TGI,[10],8570 nM
same,GI50,[11],3130 nM
same,TGI,[11],18400 nM
same,GI50,[12],1080 nM
same,TGI,[12],12900 nM
same,GI50,[13],4040 nM
same,TGI,[13],25500 nM
same,GI50,[14],705 nM
same,TGI,[14],9270 nM
same,GI50,[15],1110 nM
same,TGI,[15],12500 nM
same,GI50,[16],292 nM
same,TGI,[16],899 nM
same,GI50,[17],148 nM
same,TGI,[17],309 nM
same,GI50,[18],559 nM
same,TGI,[18],12400 nM
same,GI50,[19],655 nM
same,TGI,[19],2250 nM
same,GI50,[20],1850 nM
same,TGI,[20],14600 nM
same,GI50,[21],321 nM
same,TGI,[21],853 nM
same,GI50,[22],408 nM
same,TGI,[22],10400 nM
same,GI50,[23],756 nM
same,TGI,[23],4530 nM
same,GI50,[24],484 nM
same,TGI,[24],2250 nM
same,GI50,[25],498 nM
same,TGI,[25],14500 nM
same,GI50,[26],4680 nM
same,TGI,[26],19500 nM
same,GI50,[27],769 nM
same,TGI,[27],10300 nM
same,GI50,[28],571 nM
same,TGI,[28],5640 nM
same,GI50,[29],367 nM
same,TGI,[29],1570 nM
same,GI50,[30],832 nM
same,TGI,[30],2540 nM
same,GI50,[31],358 nM
same,TGI,[31],1610 nM
same,GI50,[32],1400 nM
same,TGI,[32],10500 nM
same,GI50,[33],1020 nM
same,TGI,[33],3560 nM
same,GI50,[34],1810 nM
same,TGI,[34],9050 nM
same,GI50,[35],3680 nM
same,TGI,[35],21200 nM
same,GI50,[36],688 nM
same,TGI,[36],11000 nM
same,GI50,[37],569 nM
same,TGI,[37],5670 nM
same,GI50,[38],650 nM
same,TGI,[38],19300 nM
same,GI50,[39],1390 nM
same,TGI,[39],12200 nM
same,GI50,[40],2480 nM
same,TGI,[40],12100 nM
same,GI50,[41],1460 nM
same,TGI,[41],6950 nM
same,GI50,[42],2790 nM
same,TGI,[42],12900 nM
same,GI50,[43],862 nM
same,TGI,[43],7450 nM
same,GI50,[44],444 nM
same,TGI,[44],9920 nM
same,GI50,[45],1900 nM
same,TGI,[45],16800 nM
same,GI50,[46],1080 nM
same,TGI,[46],5810 nM
same,GI50,[47],400 nM
same,TGI,[47],11900 nM
same,GI50,[48],376 nM
same,TGI,[48],2090 nM
same,GI50,[49],1130 nM
same,TGI,[49],4390 nM
same,GI50,[50],250 nM
same,TGI,[50],568 nM
same,GI50,[51],1490 nM
same,TGI,[51],7290 nM
same,GI50,[52],741 nM
same,TGI,[52],8310 nM
same,GI50,[53],1710 nM
same,TGI,[53],8880 nM
same,GI50,[54],219 nM
same,TGI,[54],391 nM
same,GI50,[55],734 nM
same,TGI,[55],2030 nM
same,GI50,[56],804 nM
same,TGI,[56],12500 nM
same,GI50,[57],1510 nM
same,TGI,[57],3730 nM
same,GI50,[58],210 nM
same,TGI,[58],457 nM

# — PubChem BioAssay (NCI)
